Test results as given in US12617813B2, “Glycosylated histone deacetylase inhibitors and methods of making and using the same” (Georgia Tech Research Corporation, priority 2020, dated 2026).

What was measured:
HDAC1 = HDAC1 (Homo sapiens, UniProt Q13547); assay: HDAC inhibition, HDAC1; format: biochemical
HDAC2 = HDAC2 (Homo sapiens, UniProt Q92769); assay: HDAC inhibition, HDAC2; format: biochemical
HDAC8 = biological target: T1, HDAC8 (Homo sapiens, UniProt Q9BY41); assay: HDAC inhibition, HDAC8; format: biochemical
T1 sequence (Q9BY41 1-377): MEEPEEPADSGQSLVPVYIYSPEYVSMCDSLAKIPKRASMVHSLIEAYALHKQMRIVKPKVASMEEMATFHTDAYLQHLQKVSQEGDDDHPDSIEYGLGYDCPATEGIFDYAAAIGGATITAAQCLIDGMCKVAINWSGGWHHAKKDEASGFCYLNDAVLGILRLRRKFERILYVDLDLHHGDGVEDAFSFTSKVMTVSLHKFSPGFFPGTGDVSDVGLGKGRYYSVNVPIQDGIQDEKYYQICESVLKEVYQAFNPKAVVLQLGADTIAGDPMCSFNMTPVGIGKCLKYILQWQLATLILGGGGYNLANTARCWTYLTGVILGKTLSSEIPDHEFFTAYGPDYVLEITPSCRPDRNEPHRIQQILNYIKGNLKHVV

HDAC6 = biological target: T2, HDAC6 (Homo sapiens, UniProt Q9UBN7); assay: HDAC inhibition, HDAC6; format: biochemical
T2 sequence (Q9UBN7 1-1215): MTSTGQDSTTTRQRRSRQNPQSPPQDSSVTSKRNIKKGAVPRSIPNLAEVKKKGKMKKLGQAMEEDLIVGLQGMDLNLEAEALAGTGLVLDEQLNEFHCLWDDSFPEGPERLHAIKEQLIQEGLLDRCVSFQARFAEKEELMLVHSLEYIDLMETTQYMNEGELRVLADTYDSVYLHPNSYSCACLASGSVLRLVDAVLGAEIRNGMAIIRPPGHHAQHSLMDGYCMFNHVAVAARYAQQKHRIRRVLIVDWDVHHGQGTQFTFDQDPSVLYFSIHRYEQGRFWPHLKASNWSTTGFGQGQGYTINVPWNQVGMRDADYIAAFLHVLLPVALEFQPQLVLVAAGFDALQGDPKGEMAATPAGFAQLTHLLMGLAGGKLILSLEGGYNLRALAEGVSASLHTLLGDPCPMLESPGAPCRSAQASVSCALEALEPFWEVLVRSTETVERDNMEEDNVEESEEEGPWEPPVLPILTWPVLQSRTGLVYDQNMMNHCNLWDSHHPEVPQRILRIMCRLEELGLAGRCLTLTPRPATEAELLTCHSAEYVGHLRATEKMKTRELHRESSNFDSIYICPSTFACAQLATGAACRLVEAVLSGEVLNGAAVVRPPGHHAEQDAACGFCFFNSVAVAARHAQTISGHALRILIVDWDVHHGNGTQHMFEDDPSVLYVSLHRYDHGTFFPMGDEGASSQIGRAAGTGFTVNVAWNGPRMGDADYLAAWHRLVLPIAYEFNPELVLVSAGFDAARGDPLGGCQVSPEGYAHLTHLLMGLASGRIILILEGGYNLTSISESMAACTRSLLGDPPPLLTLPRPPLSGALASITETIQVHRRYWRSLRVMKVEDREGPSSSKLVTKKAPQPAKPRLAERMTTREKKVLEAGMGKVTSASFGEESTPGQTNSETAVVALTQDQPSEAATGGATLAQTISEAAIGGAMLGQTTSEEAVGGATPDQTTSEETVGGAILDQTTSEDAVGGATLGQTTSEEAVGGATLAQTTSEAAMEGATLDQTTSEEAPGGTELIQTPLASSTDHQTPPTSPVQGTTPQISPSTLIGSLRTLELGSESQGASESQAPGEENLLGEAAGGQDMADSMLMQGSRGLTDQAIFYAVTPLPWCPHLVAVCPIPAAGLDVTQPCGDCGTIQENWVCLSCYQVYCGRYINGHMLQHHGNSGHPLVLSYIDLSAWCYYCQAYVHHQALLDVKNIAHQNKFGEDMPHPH

Hep-G2 = assay: Cell growth inhibition, Hep-G2; format: cell-based; conditions: Homo sapiens, HepG2, NI = No Inhibition at 100 uM
VERO = assay: Cell growth inhibition, VERO; format: cell-based; conditions: Chlorocebus sabaeus, NI = No Inhibition at 100 uM
A549 = assay: Cell growth inhibition, A549; format: cell-based; conditions: Homo sapiens, NI = No Inhibition at 100 uM

Sequence of HDAC2 (Q92769 whole entry): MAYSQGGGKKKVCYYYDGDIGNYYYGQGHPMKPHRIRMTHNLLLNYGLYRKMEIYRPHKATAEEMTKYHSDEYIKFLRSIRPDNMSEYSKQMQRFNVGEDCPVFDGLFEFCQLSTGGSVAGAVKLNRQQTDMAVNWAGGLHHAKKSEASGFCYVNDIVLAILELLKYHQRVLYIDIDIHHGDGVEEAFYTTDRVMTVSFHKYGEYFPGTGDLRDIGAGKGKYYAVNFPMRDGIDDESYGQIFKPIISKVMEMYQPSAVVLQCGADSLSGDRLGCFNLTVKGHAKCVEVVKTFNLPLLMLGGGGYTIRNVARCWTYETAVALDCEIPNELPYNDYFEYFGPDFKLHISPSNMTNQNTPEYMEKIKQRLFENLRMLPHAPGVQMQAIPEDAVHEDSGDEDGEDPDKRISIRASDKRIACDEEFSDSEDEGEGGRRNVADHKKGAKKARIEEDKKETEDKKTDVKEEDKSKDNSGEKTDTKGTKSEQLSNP
Sequence of HDAC1 (Q13547 whole entry): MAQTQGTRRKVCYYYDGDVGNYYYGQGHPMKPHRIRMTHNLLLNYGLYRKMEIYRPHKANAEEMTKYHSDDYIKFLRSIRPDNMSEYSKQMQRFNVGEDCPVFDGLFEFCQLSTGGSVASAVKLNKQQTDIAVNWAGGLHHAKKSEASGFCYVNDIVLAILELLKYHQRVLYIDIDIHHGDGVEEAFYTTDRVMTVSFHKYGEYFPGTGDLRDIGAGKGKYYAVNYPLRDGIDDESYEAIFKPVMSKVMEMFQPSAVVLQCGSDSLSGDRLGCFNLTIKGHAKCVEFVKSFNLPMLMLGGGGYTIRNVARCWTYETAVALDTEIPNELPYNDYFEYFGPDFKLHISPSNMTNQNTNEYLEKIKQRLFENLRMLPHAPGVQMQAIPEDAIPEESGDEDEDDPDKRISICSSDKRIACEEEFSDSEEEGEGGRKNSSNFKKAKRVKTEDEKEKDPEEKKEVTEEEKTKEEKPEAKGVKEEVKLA

Row | Molecule | IC50 (HDAC1) [nM] | IC50 (HDAC2) [nM] | IC50 (HDAC8) [nM] | IC50 (HDAC6) [nM] | IC50 (Hep-G2) [µM] | IC50 (VERO) [µM] | IC50 (A549) [µM]
1 | CC(=O)OC[C@H]1OC(Oc2ccc(-c3cn(CCCCCCC(=O)NO)nn3)cc2)C(OC(C)=O)[C@@H](OC(C)=O)[C@@H]1OC(C)=O (stereo in doubt) [STR-V-176, (2R,3R,4S,5R,6S)-2-(acetoxymethyl)-6-(4-(1-(7-(hydroxyamino)-7-oxoheptyl)-1H-1,2,3-triazol-4-yl)phenoxy)tetrahydro-2H-pyran-3,4,5-triyl triacetate] | 1.43 | 4.2 | 271 | 1.05 |  |  | 
2 | Nc1cc(F)ccc1NC(=O)CCCCCCn1cc(-c2ccc(O[C@H]3O[C@H](CO)[C@@H](O)[C@H](O)[C@H]3O)cc2)nn1 [Compound 15] |  |  |  |  | ~100 | > 100 | > 100
3 | CC(=O)OC[C@H]1O[C@H](Oc2ccc3cc(-c4cn(CCCCCCC(=O)NO)nn4)ccc3c2)[C@@H](OC(C)=O)[C@@H](OC(C)=O)[C@@H]1OC(C)=O [Compound 6] |  |  |  |  | 7.4 ± 0.9 | 19.2 ± 0.9 | 39.6 ± 0.6
4 | O=C(/C=C/c1ccc2cc(O[C@H]3O[C@H](CO)[C@@H](O)[C@H](O)[C@@H]3O)ccc2c1)NO [Compound 11] |  |  |  |  | 78.5 ± 11.6 | > 100 | > 100
5 | O=C(CCCCCn1cc(-c2ccc(O[C@H]3O[C@H](CO)[C@@H](O)[C@H](O)[C@@H]3O)cc2)nn1)NO [STR-II-29] | 68.2 | 146 | 3590 | 6.45 |  |  | 
6 | (2R,3R,4S,5R,6R)-2-(acetoxymethyl)-6-(4-(1-(7-(((tert-butyldiphenylsilyl)oxy)-amino)-7-oxoheptyl)-1H-1,2,3-triazol-4-yl)phenoxy)tetrahydro-2H-pyran-3,4,5-triyl triacetate [STR-V-167] | 31.8 | 66.4 | 311 | 2.61 |  |  | 
7 | CC(=O)OC[C@H]1OC(Oc2ccc3cc(-c4cn(CCCCCCC(=O)NO)nn4)ccc3c2)C(OC(C)=O)[C@@H](OC(C)=O)[C@@H]1OC(C)=O (stereo in doubt) [STR-V-177, (2R,3R,4S,5R,6S)-2-(acetoxymethyl)-6-((6-(1-(7-(hydroxyamino)-7-oxoheptyl)-1H-1,2,3-triazol-4-yl)naphthalen-2-yl)oxy)tetrahydro-2H-pyran-3,4,5-triyl triacetate] | 2.2 | 13.2 | 718 | 1.65 |  |  | 
8 | CC(=O)OC[C@H]1O[C@H](Oc2ccc(-c3cn(CCCCCCC(=O)NO)nn3)cc2)[C@@H](OC(C)=O)[C@@H](OC(C)=O)[C@@H]1OC(C)=O [Compound 4] |  |  |  |  | 8 ± 0.9 | 77.4 ± 5.6 | 64.7 ± 7
9 | O=C(CCCCCCn1cc(-c2ccc(O)cc2)nn1)NO [STR-V-183, N-hydroxy-7-(4-(4-hydroxyphenyl)-11-1-1,2,3-triazol-1-yl)heptanamide, reference compound] | 12.2 | 27.2 | 1960 | 1.05 |  |  | 
10 | O=C(/C=C/c1ccc(O[C@H]2O[C@H](CO)[C@@H](O)[C@H](O)[C@H]2O)cc1)NO [Compound 12] |  |  |  |  | 45.3 ± 5.9 | > 100 | > 100
11 | (2S,3R,4S,6R)-4-(dimethylamino)-2-(4-(1-(7-(hydroxyamino)-7-oxoheptyl)-1H-1,2,3-triazol-4-yl)phenoxy)-6-methyltetrahydro-2H-pyran-3-yl acetate [STR-V-165] | 10.3 | 27.5 | 806 | 5.22 |  |  | 
12 | Nc1ccc(-c2cccs2)cc1NC(=O)CCCCCCn1cc(-c2ccc(O[C@H]3O[C@H](CO)[C@@H](O)[C@H](O)[C@H]3O)cc2)nn1 [Compound 16] |  |  |  |  | > 100 | > 100 | 49.5
13 | O=C(CCCCCn1cc(-c2ccc(O[C@H]3O[C@H](CO)[C@@H](O)[C@H](O)[C@@H]3O)cc2)nn1)NO [Compound 10] |  |  |  |  | 42.8 ± 0.5 | > 100 | > 100
14 | Nc1ccc(F)cc1NC(=O)CCCCCCn1cc(-c2ccc(O[C@H]3O[C@H](CO)[C@@H](O)[C@H](O)[C@H]3O)cc2)nn1 [Compound 14] |  |  |  |  |  | > 100 | 59.9
15 | O=C(CCCCCn1cc(-c2ccc3cc(O[C@H]4O[C@H](CO)[C@@H](O)[C@H](O)[C@@H]4O)ccc3c2)nn1)NO [STR-II-35] | 26.8 | 47.1 | 1970 | 2.03 |  |  | 
16 | O=C(/C=C/c1ccc2cc(O[C@H]3O[C@H](CO)[C@@H](O)[C@H](O)[C@H]3O)ccc2c1)NO [Compound 8] |  |  |  |  | 66.1 | 82.1 | > 100
17 | O=C(CCCCCCn1cc(-c2ccc3cc(O[C@H]4O[C@H](CO)[C@@H](O)[C@H](O)[C@@H]4O)ccc3c2)nn1)NO [STR-II-36] | 3.28 | 10.4 | 319 | 0.719 |  |  | 
18 | O=C(CCCCCCn1cc(-c2ccc(O[C@H]3O[C@H](CO)[C@@H](O)[C@H](O)[C@H]3O)cc2)nn1)NO [Compound 2] |  |  |  |  | 10.4 ± 0.6 | 76.4 ± 0.2 | 100 ± 0.1
19 | C[C@H]1C[C@@H](N(C)C)[C@H](O)C(Oc2ccc(-c3cn(CCCCCCC(=O)NO)nn3)cc2)O1 (stereo partly drawn) [Compound 13] |  |  |  |  | 9.6 ± 3.4 | 76.4 | 33.7 ± 1.8
20 | O=C(/C=C/c1ccc2cc(O[C@H]3O[C@H](CO)[C@@H](O)[C@H](O)[C@H]3O)ccc2c1)NO [STR-V-115] | 427 | 1030 | 461 | 16.5 |  |  | 
21 | CC(=O)OC[C@H]1O[C@H](Oc2ccc(-c3cn(CCCCCCC(=O)NO)nn3)cc2)[C@H](OC(C)=O)[C@@H](OC(C)=O)[C@@H]1OC(C)=O [Compound 1] |  |  |  |  | 10.1 ± 1.2 | > 100 | > 100
22 | O=C(CCCCCCn1cc(-c2ccc3cc(O[C@H]4O[C@H](CO)[C@@H](O)[C@H](O)[C@@H]4O)ccc3c2)nn1)NO [Compound 7] |  |  |  |  | 7.5 ± 0.8 | 33.6 ± 5.5 | 20.1 ± 1.1
23 | O=C(CCCCCCn1cc(-c2ccc(O[C@H]3O[C@H](CO)[C@@H](O)[C@H](O)[C@@H]3O)cc2)nn1)NO [Compound 5] |  |  |  |  | 22.3 ± 2 | 65.5 ± 8.3 | > 100
24 | O=C(CCCCCn1cc(-c2ccc3cc(O[C@H]4O[C@H](CO)[C@@H](O)[C@H](O)[C@@H]4O)ccc3c2)nn1)NO [Compound 9] |  |  |  |  | 13.5 ± 2.7 | > 100 | 66.7 ± 16.1
25 | O=C(/C=C/c1ccc(O[C@H]2O[C@H](CO)[C@@H](O)[C@H](O)[C@H]2O)cc1)NO [STR-V-121] | 3840 | 6500 | 1820 | 75.4 |  |  | 
26 | O=C(CCCCCCn1cc(-c2ccc3cc(O[C@H]4O[C@H](CO)[C@@H](O)[C@H](O)[C@H]4O)ccc3c2)nn1)NO [Compound 3] |  |  |  |  | 6.7 ± 1.6 | 34.1 ± 3 | 77.2 ± 4.3
